The values that follow come from patent publication US7888332B2, “Hydrazide-containing CFTR inhibitor compounds and uses thereof” (The Regents of the University of California, priority 2004, dated 2011).

Like-named read-outs stand apart in the source and are kept apart here.

Series [1] concerns the target T1, CFTR (Homo sapiens, UniProt P13569). The series can be described thus: Short-circuit current (apical Cl− current) analysis on permeabilized CFTR-expressing FRT cells. As to conditions: for inhibition at 50 µM: FRT, read-out: % inhibition at 50 μM; for change of inhibitory potency relative to parent compound: vs GlyH-101 / GlyH-102.
Target sequence in this assay (P13569 whole entry): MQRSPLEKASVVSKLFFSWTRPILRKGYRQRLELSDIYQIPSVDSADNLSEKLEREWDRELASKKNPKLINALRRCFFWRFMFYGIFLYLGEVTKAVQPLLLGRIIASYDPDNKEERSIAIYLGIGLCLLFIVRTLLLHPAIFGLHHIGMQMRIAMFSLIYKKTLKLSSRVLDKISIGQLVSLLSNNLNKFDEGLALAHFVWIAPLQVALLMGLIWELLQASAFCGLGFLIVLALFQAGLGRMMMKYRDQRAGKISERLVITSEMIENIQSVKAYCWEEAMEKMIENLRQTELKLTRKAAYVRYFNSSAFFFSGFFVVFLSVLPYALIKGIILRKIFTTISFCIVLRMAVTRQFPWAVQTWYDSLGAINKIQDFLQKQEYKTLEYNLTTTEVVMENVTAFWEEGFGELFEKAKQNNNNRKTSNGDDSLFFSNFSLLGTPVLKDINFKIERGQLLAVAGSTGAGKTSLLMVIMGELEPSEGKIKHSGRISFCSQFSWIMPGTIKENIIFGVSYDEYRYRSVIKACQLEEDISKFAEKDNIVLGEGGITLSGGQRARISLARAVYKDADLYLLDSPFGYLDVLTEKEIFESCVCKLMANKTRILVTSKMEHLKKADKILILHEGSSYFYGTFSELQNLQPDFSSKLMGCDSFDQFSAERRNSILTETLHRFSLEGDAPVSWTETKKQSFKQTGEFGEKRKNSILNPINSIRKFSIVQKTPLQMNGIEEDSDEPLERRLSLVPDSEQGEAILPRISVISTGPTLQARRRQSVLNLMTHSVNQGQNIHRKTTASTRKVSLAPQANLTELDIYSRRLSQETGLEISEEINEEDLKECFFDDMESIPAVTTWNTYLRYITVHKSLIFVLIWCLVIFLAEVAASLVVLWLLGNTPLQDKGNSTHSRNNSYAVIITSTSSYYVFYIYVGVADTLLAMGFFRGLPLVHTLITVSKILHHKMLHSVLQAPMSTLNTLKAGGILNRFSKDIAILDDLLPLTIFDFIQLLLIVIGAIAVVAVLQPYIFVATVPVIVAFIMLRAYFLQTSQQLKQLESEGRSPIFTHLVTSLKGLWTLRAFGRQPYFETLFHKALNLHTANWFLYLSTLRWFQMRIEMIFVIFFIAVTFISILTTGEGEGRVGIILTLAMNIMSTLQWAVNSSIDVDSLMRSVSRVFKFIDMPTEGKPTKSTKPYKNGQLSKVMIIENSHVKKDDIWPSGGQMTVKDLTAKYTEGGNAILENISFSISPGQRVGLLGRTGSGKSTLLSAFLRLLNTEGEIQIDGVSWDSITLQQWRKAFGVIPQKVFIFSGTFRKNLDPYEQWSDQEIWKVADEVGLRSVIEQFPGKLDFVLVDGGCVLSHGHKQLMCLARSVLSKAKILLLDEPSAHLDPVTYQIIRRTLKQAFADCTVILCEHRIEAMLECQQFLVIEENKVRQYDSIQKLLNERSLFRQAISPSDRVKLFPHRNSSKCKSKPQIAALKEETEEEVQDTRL
Series [2] deals with T1, CFTR. In words: Whole-cell patch-clamp on FRT cells expressing CFTR. Format: cell-based. Set-up: expressed in transfected cells; host or cells: Fisher Rat Thyroid (FRT) cells, stably transfected. As to conditions: GlyH-101 at submaximal concentrations; CFTRinh-172 5 μM. The protocol:
Patch-clamp experiments were carried out at room temperature on FRT cells stably expressing wildtype CFTR. Cell-attached and whole-cell configurations were used (Hamill et al., Pflugers Arch. 391:85-100, 1981). The cell membrane was clamped at specified voltages using an EPC-7 patch-clamp amplifier (List Medical). Data were filtered at 500 Hz and digitized at 2000 Hz. For whole-cell experiments the pipette solution contained (in mM): 120 CsCl, 10 TEA-Cl, 0.5 EGTA, 1 MgCl2, 40 mannitol, 10 Cs-HEPES and 3 mM MgATP (pH 7.3). For cell attached experiments EGTA was replaced with 1 mM CaCl2. The bath solution for whole-cell experiments contained (in mM): 150 NaCl, 1 CaCl2, 1 MgCl2, 10 glucose, 10 mannitol, 10 Na-TES (pH 7.4). In cell-attached experiments the bath solution contained (in mM): 130 KCl, 2 NaCl, 2 CaCl2, 2 MgCl2, 10 glucose, 20 mannitol, and 10 K-Hepes (pH 7.3). Inhibitors were applied by extracellular perfusion. CFTR channel activity in cell-attached patches was analyzed as described previously (Taddei et al., FEBS Lett. 558:52-56, 2004).
The mechanism of CFTR block by GlyH-101 was studied using the whole-cell configuration of the patch-clamp technique. After maximal activation of CFTR in stably transfected FRT cells by 5 μM forskolin, current-voltage relationships were measured at GlyH-101 concentrations from 0 to 50 μM. […] Extracellular perfusion with 10 μM GlyH-101 produced an immediate reduction in current that was strongly dependent on membrane potential (FIG. 4A, right panel). At more positive membrane potentials outward positive currents (Cl^− movement into the cell) were reduced compared to inward currents. […] Data for the thiazolidinone 3-[(3-trifluoromethyl)phenyl]-5-[(4-carboxyphenyl)methylene]-2-thioxo-4-thiazolidinone (referred to herein as CFTRinh-172) (5 μM) is shown for comparison. […] FIG. 4C summarizes percentage CFTR current block as a function of GlyH-101 concentration at different membrane voltages.
Target sequence in this assay (P13569 whole entry): as above

In series [3] the target is T1, CFTR. Set-up: host or cells: 'permeabilized cell preparations' and 'most intact epithelial cells' (not specified). Particulars: cited from earlier work.
Target sequence in this assay (P13569 whole entry, species assumed): as the sequence (P13569 whole entry) above
Series [4] in a line: Intestinal absorption in closed mid-jejunal loops. Type of series: in vivo. As to conditions: mice, 2 hours. The protocol:
Absorption studies were performed using mid-jejunal loops created as described above. […] After 2 hours loop fluid was withdrawn and optical absorbance of test compound and FITC were measured (OD342/OD494nm). Percentage intestinal absorption was computed assuming zero absorption of FITC-dextran.
Intestinal absorption was measured in mice in vivo from the disappearance of MalH compounds from the lumens of closed mid-jejunal loops over 2 hours. In these experiments mannitol was included in the MalH-containing solutions to prevent fluid absorption. Absorption rates were referenced against a large FITC-dextran, which was assumed to undergo no absorption over the 2 hour study.

Series [5] can be described thus: Spectrophotometric pH titration (pKa). Type of series: physicochemical. As to conditions: read-out: pKa, secondary amine. How it is done:
FIG. 5A is a graph illustrating the pH-dependent absorbance changes (right panel) of the chemical compounds (10 μM) (corresponding chemical structures, left panel) in NaCl (100 mM) containing MES, HEPES, boric acid, and citric acid (each 10 mM) titrated to different pH using HCl/NaOH. Absorbance changes measured at analytical wavelengths of 346, 348, 346, and 236 nm (top to bottom).

The subject of series [6] is upper airway CFTR Cl− conductance. In words: Nasal potential difference measurements in mice. As to conditions: compound in all solutions (100 μM).
[7] abbreviates: Ki, Table 1, Group I, concentration giving 50% inhibition of CFTR Cl− conductance.
The mark [8] stands for this setting: Ki, Table 4, Group IV, concentration giving 50% inhibition of CFTR Cl− conductance.
The mark [9] stands for this setting: Table 1, Group I, concentration giving 50% inhibition of CFTR Cl− conductance.
[10] abbreviates: Ki, Table 2, Group II, concentration giving 50% inhibition of CFTR Cl− conductance.
Where [11] appears, read: Ki, Table 3, Group III, concentration giving 50% inhibition of CFTR Cl− conductance.

Turning to `O=C(CNc1cccc2ccccc12)NN=Cc1cc(Br)c(O)c(Br)c1` [GlyH-105], on CFTR [1], the inhibition at 50 µM came out at 87%. Besides, on CFTR [1] (setting [7]), the Ki was 15 µM.
`O=C(NN=Cc1cc(Br)c(O)c(Br)c1)C(=O)Nc1ccc2ccccc2c1` [OxaH-111]: at CFTR [1], the inhibition at 50 µM was 52% and the “change of inhibitory potency relative to parent compound” value is “two-three fold greater”. This compound registered a Ki on CFTR [1] (setting [7]) of 2.5 µM.
Regarding `Cc1ccc(CC(=O)NN=Cc2cc(Br)c(O)c(Br)c2)cc1` [AceH-404], the inhibition at 50 µM at CFTR [1] was found to be 63%. The compound also showed a Ki on CFTR [1] (setting [8]) of 15 µM.
Consider `CC(Nc1ccc2ccccc2c1)C(=O)NN=Cc1cc(Br)c(O)c(Br)c1O` (stereo not shown) [GlyH-106], for which the “% inhibition at 50 μM” value at CFTR [1] (Table 1, Group I) turned out to be 91%. In addition, the Ki at CFTR [1] (setting [9]) turned out to be 6 µM.
As for `CC(=NNC(=O)C(=O)Nc1ccc2ccccc2c1)c1cc(Br)c(O)c(Br)c1O` [OxaH-112], on CFTR [1], the inhibition at 50 µM amounted to 95%. The compound also came in with a Ki at CFTR [1] (setting [7]) of 3 µM.
Consider `O=C(O)c1ccc(C=C2SC(=S)N(c3cccc(C(F)(F)F)c3)C2=O)cc1` [CFTRinh-172, 3-[(3-trifluoromethyl)phenyl]-5-[(4-carboxyphenyl)methylene]-2-thioxo-4-thiazolidinone], for which, at CFTR [2], the current-voltage relationship entry was “linear”. In addition, the Ki at CFTR [3] (most intact epithelial cells) was 2 to 5 µM; at CFTR [3] (permeabilized cell preparations) it was 0.2 to 0.3 µM. Besides, in series [4], the “absorption from closed mid-jejunal loops” value is > 90%.
For `O=C(NNC(=O)c1cc(Br)c(O)c(Br)c1O)C(=O)Nc1ccc2ccccc2c1` [OxaH-203], the Ki on CFTR [1] (setting [10]) is > 50 µM.
As to `Cc1ccc(CC(=O)NN=Cc2cc(Br)c(O)c(Br)c2O)cc1` [AceH-403], the inhibition at 50 µM at CFTR [1] came out at 54%. This compound also came in with a Ki at CFTR [1] (setting [8]) of 10 µM.
On the same counts, the results for `O=C(COc1ccc2ccccc2c1)NN=Cc1cc(Br)c(O)c(Br)c1` [AceH-402] are 86% and 17 µM.
Regarding `CC(=NNC(=O)C(=O)Nc1ccc2ccccc2c1)c1cc(Br)c(O)c(Br)c1` [OxaH-113], the inhibition at 50 µM on CFTR [1] is 90%. In addition, the Ki on CFTR [1] (setting [7]) came to 3 µM.
In the case of `Cc1ccc(NCC(=O)NN=Cc2cc(Br)c(O)c(Br)c2O)cc1` [GlyH-116], the inhibition at 50 µM on CFTR [1] was determined as 79%. This compound showed a Ki at CFTR [1] (setting [7]) of 10 µM.
Turning to `CC(=NNC(=O)CNc1ccc2ccccc2c1)c1cc(Br)c(O)c(Br)c1O` [GlyH-108], the “% inhibition at 50 μM” value on CFTR [1] (Table 1, Group I) amounted to 81%. Further, the Ki on CFTR [1] (setting [9]) is 10 µM.
Consider `O=C(CNc1ccc(Cl)cc1)NN=Cc1cc(Br)c(O)c(Br)c1` [GlyH-114], for which, on CFTR [1], the inhibition at 50 µM turned out to be 95%. Besides, on CFTR [1] (setting [7]), the Ki stood at 5 µM.
For the compound `O=C(NN=Cc1cc(Br)c(O)c(Br)c1O)C(=O)Nc1ccc2ccccc2c1` [OxaH-110, N-2-napthalenyl-[(3,5-dibromo-2,4-dihydroxyphenyl)methylene]oxamic acid hydrazide], on CFTR [1], the inhibition at 50 µM was 86% and the “change of inhibitory potency relative to parent compound” value is given as “two-three fold greater”. This compound came in with a Ki on CFTR [1] (setting [7]) of 2 µM. On CFTR [1] (apparent Ki, CFTR stimulated by 100 μM CPT-cAMP), the Ki was ~2 µM.
In the case of `CCOC(=O)CNc1ccc2ccccc2c1` [ethyl N-(2-napthalenyl) glycinate, ethyl N-(2-naphthalenyl)glycinate], the pKa in series [5] was ~4.7.
For `O=C(COc1ccc2ccccc2c1)NN=Cc1cc(Br)c(O)c(Br)c1O` [AceH-401], the inhibition at 50 µM on CFTR [1] was 84%. Also, on CFTR [1] (setting [8]), the Ki came out at 21 µM.
In the case of `CC(=NNC(=O)CNc1ccc2ccccc2c1)c1cc(Br)c(O)c(Br)c1` [GlyH-109], the inhibition at 50 µM on CFTR [1] is 100%. The compound also had a Ki at CFTR [1] (setting [7]) of 2.5 µM.
Take `O=C(NNCc1cc(Br)c(O)c(Br)c1O)C(=O)Nc1ccc2ccccc2c1` [OxaH-303]: the inhibition at 50 µM on CFTR [1] worked out at 70%. This compound showed a Ki on CFTR [1] (setting [11]) of 10 µM.
For `CC(Nc1ccc2ccccc2c1)C(=O)NN=Cc1cc(Br)c(O)c(Br)c1` (stereo not shown) [GlyH-107], the inhibition at 50 µM at CFTR [1] was determined as 80%. At CFTR [1] (setting [7]), the Ki was 10 µM.
Regarding `O=C(NNCc1cc(Br)c(O)c(Br)c1)C(=O)Nc1ccc2ccccc2c1` [OxaH-304], at CFTR [1], the inhibition at 50 µM came out at 78%. This compound showed a Ki at CFTR [1] (setting [11]) of 12 µM.
For `O=C(CNc1ccc2ccccc2c1)N/N=C/c1cc(Br)c(O)c(Br)c1` [GlyH-102], at CFTR [1] (Table 1, Group I), the “% inhibition at 50 μM” value is 98%. At CFTR [1] (setting [9]), this compound yielded a Ki of 5 µM.
On to `O=S(=O)(O)c1cc(N=C=S)ccc1C=Cc1ccc(N=C=S)cc1S(=O)(=O)O` [DIDS, reference compound], for which the “inhibition of (CFTR-independent) hyperpolarization produced by low Cl−” value in series [6] is listed as “partial inhibition”.
With `O=C(CNc1cccc2ccccc12)NN=Cc1cc(Br)c(O)c(Br)c1O` [GlyH-104], at CFTR [1], the inhibition at 50 µM came out at 86% and the “change of inhibitory potency relative to parent compound” value was “ten-fold”. On CFTR [1] (setting [7]), this compound yielded a Ki of 12 µM.
Turning to `O=C(NNC(=O)c1cc(Br)c(O)c(Br)c1)C(=O)Nc1ccc2ccccc2c1` [OxaH-204], at CFTR [1] (setting [10]), the Ki was > 50 µM.
Regarding `O=C(CNc1ccc(Cl)cc1)NN=Cc1cc(Br)c(O)c(Br)c1O` [GlyH-115], the inhibition at 50 µM at CFTR [1] stood at 91%. Further, the Ki at CFTR [1] (setting [7]) turned out to be 5 µM.
In the case of `O=C(CNc1ccc2ccccc2c1)NNCc1cc(Br)c(O)c(Br)c1` [GlyH-302], the inhibition at 50 µM at CFTR [1] was determined as 55%. In addition, the Ki at CFTR [1] (setting [11]) is ~50 µM.
For `COc1c(Br)cc(C=NNC(=O)CNc2ccc3ccccc3c2)c(O)c1Br` [GlyH-103], the inhibition at 50 µM on CFTR [1] was found to be 56%. Besides, the Ki on CFTR [1] (setting [7]) worked out at 20 µM.
For the compound `O=C(CNc1ccc2ccccc2c1)NNC(=O)c1cc(Br)c(O)c(Br)c1` [GlyH-202, 3,5-dibromo-4-hydroxy-[2-(2-napthalenamine)aceto]benzoic acid hydrazide], the inhibition at 50 µM at CFTR [1] is 57%. The compound also had a Ki at CFTR [1] (setting [10]) of 22 µM.
